Holding throughout (format): biochemical, Lactiplantibacillus plantarum
The subject of experiment [1] is T1, β-galactosidase produced by L. plantarum LP-15.
T1 construct: gene lacL; native enzyme from solid-state fermentation extract
In words: o-nitrophenol release at […] nm, Lineweaver-Burk, […]. The settings on record: optimal conditions (pH 6.5, 42 °C); 50 mM phosphate buffer; partially purified enzyme; read-out: Value/Range.

Experiment [2] concerns the target T1, β-galactosidase produced by L. plantarum LP-15. As to the kind of experiment: product inhibition kinetics. The settings on record: competitive, inhibited substrate not told, partially purified enzyme, read-out: Value/Range. From the text:
product inhibition kinetics on β-galactosidase produced by L. plantarum LP-15

Experiment [3] deals with T1, β-galactosidase produced by L. plantarum LP-15. As to the kind of experiment: initial rate kinetics; lactose read-out not told. The settings on record: conditions not given; partially purified enzyme; read-out: Value/Range. From the text:
initial rate kinetics; lactose read-out not told on β-galactosidase produced by L. plantarum LP-15

As to `O=[N+]([O-])c1ccccc1O[C@@H]1O[C@H](CO)[C@H](O)[C@H](O)[C@H]1O` [ONPG, o-Nitrophenyl-β-D-galactopyranoside], the Km in experiment [1] was 2.8 ± 0.1 mM.

For the molecule `OC[C@H]1OC(O)[C@H](O)[C@@H](O)[C@H]1O` (stereo partly drawn) [galactose], the Ki in experiment [2] was determined as 85 mM. As to `OC[C@H]1O[C@@H](O[C@H]2[C@H](O)[C@@H](O)C(O)O[C@@H]2CO)[C@H](O)[C@@H](O)[C@H]1O` (stereo partly drawn) [lactose], in experiment [3], the Km was 18.5 ± 0.5 mM.

The values are drawn from article PMC12739383, “Optimization of solid-state fermentation conditions for high β-galactosidase-producing lactic acid bacteria and its application in low-lactose dairy products” (Frontiers in Bioengineering and Biotechnology, 2025).
